Data on seven compounds can be found in US7476679B2, “Octahydroisoquinoline compounds as opioid receptor modulators” (Research Triangle Institute, priority 2005, dated 2009).

Holding throughout (type): biochemical
The target of one assay is T1, human mu opioid receptor (Homo sapiens, UniProt P35372).
T1 construct: expressed in transfected cells; host or cells: CHO cells (membrane homogenates)
Put plainly: Inhibition of agonist (DAMGO) stimulated [35S]GTPγS binding, apparent affinity (Ke). On the procedure:
(§1) Determination of apparent affinity (Ke). The ability of a single concentration of test compound to shift an agonist dose response curve to the right was used to determine its Ke. Agonist activity was determined using [^35S]GTP-γ-S binding in CHO cell membrane homogenates expressing either the human mu, kappa or delta opioid receptor. The subtype selective agonists (D-Ala^2, MePhe^4, Gly-ol^5)enkephalin (DAMGO, mu receptor), D-Pen2,D-Pen5]-enkephalin (DPDPE, delta receptor) or U69,593 (kappa receptor) were run as appropriate. The assays were run in triplicate in 1.4 mL polypropylene tubes (Matrix Technologies, Hudson, N.H.) in 96-well format. Each assay tube contained membrane homogenate, one of seven concentrations of agonist or agonist+test compound, 0.1 nM [^35S]GTP-γ-S and 10 μM GDP in a 50 mM HEPES buffer (pH 7.4). Basal [^35S]GTP-γ-S binding was determined in samples without agonist or test compound. All samples were incubated at room temperature for one hour after which bound radioligand was separated from free via rapid vacuum filtration over GF-B filters with a Brandel Scientific (Gaithersburg, Md.) 96-well harvester. Bound radioactivity was determined with a TopCount 12-detector instrument (Packard Instruments) using standard scintillation counting techniques. The binding data from each assay plate were normalized to basal binding prior to analysis. The EC50s were calculated from a three-parameter logistic curve fit to the data with Prism (version 3.0, GraphPad Software, Inc., San Diego, Calif.).
A general note: GTPγS resists hydrolysis and so accumulates on activated G proteins.

The target in assay [1] is T2, human delta opioid receptor (Homo sapiens, UniProt P41143).
T2 construct: expressed in transfected cells; host or cells: CHO cells (membrane homogenates)
T2 sequence (P41143 whole entry): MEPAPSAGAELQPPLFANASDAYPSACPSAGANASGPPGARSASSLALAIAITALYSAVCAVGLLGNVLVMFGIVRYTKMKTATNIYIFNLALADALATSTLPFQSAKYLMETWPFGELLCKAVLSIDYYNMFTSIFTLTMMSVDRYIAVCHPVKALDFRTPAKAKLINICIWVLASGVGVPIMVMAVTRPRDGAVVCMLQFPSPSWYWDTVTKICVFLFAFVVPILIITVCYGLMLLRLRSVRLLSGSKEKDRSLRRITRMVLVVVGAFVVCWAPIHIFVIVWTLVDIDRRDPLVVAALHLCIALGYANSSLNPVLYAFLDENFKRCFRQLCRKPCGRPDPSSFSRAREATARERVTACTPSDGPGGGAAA
Put plainly: Inhibition of agonist (DPDPE) stimulated [35S]GTPγS binding, apparent affinity (Ke). On the procedure: as §1

Assay [2] concerns the target T3, human kappa opioid receptor (Homo sapiens, UniProt P41145).
T3 construct: expressed in transfected cells; host or cells: CHO cells (membrane homogenates)
Put plainly: Inhibition of agonist (U69,593) stimulated [35S]GTPγS binding, apparent affinity (Ke). Particulars: for δ/κ / μ/κ: ratio of Ke values; for δ/κ: δ over κ; for μ/κ: μ over κ. The protocol:
as §1

Where [3] appears, read: cloned human μ receptor, CHO cell membrane homogenates, agonist DAMGO, 10 μM GDP, mean ± SE, read-out: μ, DAMGO Ke.
[4] abbreviates: cloned human κ receptor, CHO cell membrane homogenates, agonist U69,593, 10 μM GDP, mean ± SE, read-out: κ, U69,593 Ke.
[5] abbreviates: cloned human μ receptor, CHO cell membrane homogenates, agonist DAMGO, 10 μM GDP, mean ± SE.
[6] abbreviates: cloned human δ receptor, CHO cell membrane homogenates, agonist DPDPE, 10 μM GDP, mean ± SE.
Setting [7] is: cloned human κ receptor, CHO cell membrane homogenates, agonist U69,593, 10 μM GDP, mean ± SE.

Like-named read-outs stand apart in the source and are kept apart here.

T1 sequence (P35372 whole entry): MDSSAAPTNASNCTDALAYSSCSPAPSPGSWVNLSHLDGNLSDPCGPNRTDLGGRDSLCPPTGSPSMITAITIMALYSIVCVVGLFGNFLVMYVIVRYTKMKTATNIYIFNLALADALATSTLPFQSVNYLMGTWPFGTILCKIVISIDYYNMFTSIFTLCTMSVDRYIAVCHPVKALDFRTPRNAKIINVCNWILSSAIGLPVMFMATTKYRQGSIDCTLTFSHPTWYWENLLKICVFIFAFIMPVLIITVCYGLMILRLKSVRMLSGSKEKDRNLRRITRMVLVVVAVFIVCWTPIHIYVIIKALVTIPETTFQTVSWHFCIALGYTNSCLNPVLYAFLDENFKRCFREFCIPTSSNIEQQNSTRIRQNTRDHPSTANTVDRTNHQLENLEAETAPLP
T3 sequence (P41145 whole entry): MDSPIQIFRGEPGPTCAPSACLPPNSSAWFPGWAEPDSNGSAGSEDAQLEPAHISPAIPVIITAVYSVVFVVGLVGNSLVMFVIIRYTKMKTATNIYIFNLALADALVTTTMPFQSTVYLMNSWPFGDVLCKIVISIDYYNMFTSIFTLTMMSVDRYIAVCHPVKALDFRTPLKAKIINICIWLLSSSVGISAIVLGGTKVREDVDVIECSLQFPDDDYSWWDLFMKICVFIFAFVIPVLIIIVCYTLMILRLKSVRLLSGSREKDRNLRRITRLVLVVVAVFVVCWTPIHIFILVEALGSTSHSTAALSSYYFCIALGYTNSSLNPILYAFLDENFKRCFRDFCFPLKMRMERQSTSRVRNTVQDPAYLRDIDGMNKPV

Take `CN1CCC2(c3cccc(O)c3)CCCCC2(C)C1` (centres unmarked) [6a, N-Methyl-4a-(3-hydroxyphenyl)-8a-methyloctahydroisoquinoline]: on human mu opioid receptor, the Kb was found to be 99.4 ± 28.3 nM. Besides, the Kb in assay [1] (cloned human δ receptor, CHO cell membrane homogenates, agonist DPDPE, 10 μM GDP, mean ± SE, read-out: δ, DPDPE Ke) was 477 ± 137 nM. Further, in assay [2], the Kb turned out to be 3.37 ± 0.47 nM, the δ/κ was 141 and the μ/κ turned out to be 29.
`CC12CCCCC1(c1cccc(O)c1)CCN(CCc1ccccc1)C2` (centres unmarked) [6b, N-Phenethyl-4a-(3′-hydroxyphenyl)-8a-methyloctahydroisoquinoline]: the Kb on human mu opioid receptor (setting [3]) was determined as 0.84 ± 0.22 nM; in assay [1], 18.9 ± 5.2 nM; in assay [2] (setting [4]), 2.84 ± 0.97 nM. In assay [2], the δ/κ was 7. For the same compound, the μ/κ in assay [2] was determined as 0.3.
Turning to `CC12CCCCC1(c1cccc(O)c1)CCN(CCCc1ccccc1)C2` (centres unmarked) [6c, N-(3-Phenpropyl)-4a-(3-hydroxyphenyl)-8a-methyloctahydroisoquinoline], at human mu opioid receptor (setting [5]), the “μ, DAMGO Ke” value is on record as 0.80 ± 0.10 nM. Further, in assay [1] (setting [6]), the “δ, DPDPE Ke” value is 12.4 ± 2.9 nM. The “κ, U69,593 Ke” value in assay [2] (setting [7]) was 1.03 ± 0.14 nM. Moreover, in assay [2], the δ/κ was 12 and the μ/κ is 0.8.
As for `CC12CCC(NC(=O)CCN3CCCCC3)CC1(c1cccc(O)c1)CCN(CCCc1ccccc1)C2` (centres unmarked) [6d, N-(4a-(3-Hydroxyphenyl)-8a-methyl-2-(3-phenylpropyl)octahydroisoquinolin-6-yl]-3-piperidin-1-yl-propionamide], the Kb at human mu opioid receptor (setting [3]) came out at 41.7 ± 7.8 nM; in assay [1], 12.3 ± 3.1 nM; in assay [2] (setting [4]) it was 0.27 ± 0.08 nM. In addition, the δ/κ in assay [2] is listed as 46. In assay [2], the μ/κ turned out to be 154.
`CC12CCC(NC(=O)CCN3CCc4ccccc4C3)CC1(c1cccc(O)c1)CCN(CCCc1ccccc1)C2` (centres unmarked) [6e, 3-(3,4-Dihydro-1H-isoquinolin-2-yl)-N-(4a-(3-hydroxyphenyl)-8a-methyl-2-(3-phenylpropyl)octahydroisoquinolin-6-yl]propionamide]: the Kb on human mu opioid receptor (setting [3]) was 9.82 ± 3.7 nM; in assay [1], 4.56 ± 1.2 nM; in assay [2] (setting [4]) it was 0.22 ± 0.02 nM. Further, the δ/κ in assay [2] turned out to be 21. Moreover, the μ/κ in assay [2] was determined as 45.
Turning to `CC12CCC(NC(=O)C3(c4ccccc4)CCCC3)CC1(c1cccc(O)c1)CCN(CCCc1ccccc1)C2` (centres unmarked) [6f, 1-Phenylcyclopentanecarboxylic Acid [4a-(3-Hydroxyphenyl)-8a-methyl-2-(3-phenylpropyl)octahydroisoquinolin-6-yl]amide], the values for the Kb (on human mu opioid receptor (setting [3]); in assay [1]; in assay [2] (setting [4])) were 1.46 ± 0.15 nM, 6.46 ± 2.3 nM and 1.93 ± 0.48 nM, respectively. The δ/κ in assay [2] was determined as 3. Further, in assay [2], the μ/κ came to 0.8.
Consider `CC12CCC(NC(=O)c3cc4ccccc4s3)CC1(c1cccc(O)c1)CCN(CCCc1ccccc1)C2` (centres unmarked) [6g], for which the “μ, DAMGO Ke” value at human mu opioid receptor (setting [5]) amounted to 11.3 ± 2.0 nM. Moreover, in assay [1] (setting [6]), the “δ, DPDPE Ke” value was found to be 1.01 ± 0.22 nM. Besides, the “κ, U69,593 Ke” value in assay [2] (setting [7]) stood at 0.46 ± 0.13 nM. Besides, in assay [2], the δ/κ turned out to be 2 and the μ/κ was 25.
